Reference: PubChem BioAssay (NCI)
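Method: 48-hour compound exposure of cells in 96-well plates, five concentrations, linear interpolation of endpoints. GI50 is the concentration that inhibits growth by half. TGI denotes the concentration required for complete inhibition of growth.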

How the values were obtained:
Experiment in all cases: DTP human tumour cell line panel, 48 h
SF-539 CNS = tested on: SF-539 CNS
OVCAR-5 ovarian = tested on: OVCAR-5 ovarian
HCT-116 colon = tested on: HCT-116 colon
MOLT-4 leukemia = tested on: MOLT-4 leukemia
HL-60(TB) leukemia = tested on: HL-60(TB) leukemia
OVCAR-3 ovarian = tested on: OVCAR-3 ovarian
SK-MEL-2 melanoma = tested on: SK-MEL-2 melanoma
SNB-19 CNS = tested on: SNB-19 CNS
EKVX NSCLC = tested on: EKVX NSCLC
SF-295 CNS = tested on: SF-295 CNS
ACHN renal = tested on: ACHN renal
K-562 leukemia = tested on: K-562 leukemia
UACC-257 melanoma = tested on: UACC-257 melanoma
SNB-78 CNS = tested on: SNB-78 CNS
A498 renal = tested on: A498 renal
XF 498 CNS = tested on: XF 498 CNS
SR leukemia = tested on: SR leukemia
SW-620 colon = tested on: SW-620 colon
SNB-75 CNS = tested on: SNB-75 CNS
HT29 colon = tested on: HT29 colon
M19-MEL melanoma = tested on: M19-MEL melanoma
COLO 205 colon = tested on: COLO 205 colon
DMS 114 small cell lung = tested on: DMS 114 small cell lung
U251 CNS = tested on: U251 CNS
MALME-3M melanoma = tested on: MALME-3M melanoma
CAKI-1 renal = tested on: CAKI-1 renal
UACC-62 melanoma = tested on: UACC-62 melanoma
OVCAR-8 ovarian = tested on: OVCAR-8 ovarian
SF-268 CNS = tested on: SF-268 CNS
786-0 renal = tested on: 786-0 renal
CCRF-CEM leukemia = tested on: CCRF-CEM leukemia
SN12C renal = tested on: SN12C renal
M14 melanoma = tested on: M14 melanoma
HOP-62 NSCLC = tested on: HOP-62 NSCLC
IGROV1 ovarian = tested on: IGROV1 ovarian
NCI-H23 lung = tested on: NCI-H23 lung
A549 NSCLC = tested on: A549 NSCLC
LOX IMVI melanoma = tested on: LOX IMVI melanoma
HCT-15 colon = tested on: HCT-15 colon
RXF 393 renal = tested on: RXF 393 renal
NCI-H226 lung = tested on: NCI-H226 lung
KM20L2 colon = tested on: KM20L2 colon
TK-10 renal = tested on: TK-10 renal
SK-MEL-5 melanoma = tested on: SK-MEL-5 melanoma
DMS 273 small cell lung = tested on: DMS 273 small cell lung
NCI-H460 lung = tested on: NCI-H460 lung
NCI-H522 lung = tested on: NCI-H522 lung
HOP-92 NSCLC = tested on: HOP-92 NSCLC
UO-31 renal = tested on: UO-31 renal
OVCAR-4 ovarian = tested on: OVCAR-4 ovarian
LXFL 529 NSCLC = tested on: LXFL 529 NSCLC
DLD-1 colon = tested on: DLD-1 colon
SK-MEL-28 melanoma = tested on: SK-MEL-28 melanoma
KM12 colon = tested on: KM12 colon
HOP-18 NSCLC = tested on: HOP-18 NSCLC
SK-OV-3 ovarian = tested on: SK-OV-3 ovarian
HCC-2998 colon = tested on: HCC-2998 colon
MCF7 breast = tested on: MCF7 breast
DU-145 prostate = tested on: DU-145 prostate
MDA-MB-231 breast = tested on: MDA-MB-231 breast
T-47D breast = tested on: T-47D breast
MDA-MB-435 = tested on: MDA-MB-435
PC-3 prostate = tested on: PC-3 prostate
HS 578T breast = tested on: HS 578T breast
NCI/ADR-RES ovarian = tested on: NCI/ADR-RES ovarian
BT-549 breast = tested on: BT-549 breast
RPMI-8226 leukemia = tested on: RPMI-8226 leukemia

Question: What does the source list for `CCSC1(SCC)CC(Cc2ccc(OC)cc2)N(C=NC(C)(C)C)C1` (stereo unspecified)?
Answer: TGI (SF-539 CNS): > 100 µM; TGI (OVCAR-5 ovarian): > 100 µM; TGI (HCT-116 colon): 92.8 µM; TGI (MOLT-4 leukemia): 40.9 µM; TGI (HL-60(TB) leukemia): 26.6 µM; TGI (OVCAR-3 ovarian): > 100 µM; TGI (SK-MEL-2 melanoma): > 100 µM; TGI (SNB-19 CNS): > 100 µM; TGI (EKVX NSCLC): > 100 µM; TGI (SF-295 CNS): 45.5 µM; TGI (ACHN renal): > 100 µM; TGI (K-562 leukemia): 53.8 µM; TGI (UACC-257 melanoma): 47.5 µM; TGI (SNB-78 CNS): > 100 µM; TGI (A498 renal): > 100 µM; TGI (XF 498 CNS): 38.9 µM; TGI (SR leukemia): 34.2 µM; TGI (SW-620 colon): 43.1 µM; TGI (SNB-75 CNS): > 100 µM; TGI (HT29 colon): 51.5 µM; TGI (M19-MEL melanoma): 97.7 µM; TGI (COLO 205 colon): 74.6 µM; TGI (DMS 114 small cell lung): 43.4 µM; TGI (U251 CNS): 62.7 µM; TGI (MALME-3M melanoma): 37.5 µM; TGI (CAKI-1 renal): > 100 µM; TGI (UACC-62 melanoma): 67 µM; TGI (OVCAR-8 ovarian): > 100 µM; TGI (SF-268 CNS): > 100 µM; TGI (786-0 renal): > 100 µM; TGI (CCRF-CEM leukemia): 52.4 µM; TGI (SN12C renal): 84.4 µM; TGI (M14 melanoma): 32.2 µM; TGI (HOP-62 NSCLC): > 100 µM; TGI (IGROV1 ovarian): > 100 µM; TGI (NCI-H23 lung): 43.3 µM; TGI (A549 NSCLC): > 100 µM; TGI (LOX IMVI melanoma): 32.4 µM; TGI (HCT-15 colon): > 100 µM; TGI (RXF 393 renal): 40.9 µM; TGI (NCI-H226 lung): > 100 µM; TGI (KM20L2 colon): 56.9 µM; TGI (TK-10 renal): 63.2 µM; TGI (SK-MEL-5 melanoma): 31.3 µM; TGI (DMS 273 small cell lung): > 100 µM; TGI (NCI-H460 lung): > 100 µM; TGI (NCI-H522 lung): 31.1 µM; TGI (HOP-92 NSCLC): 25 µM; TGI (UO-31 renal): 87.5 µM; TGI (OVCAR-4 ovarian): > 100 µM; TGI (LXFL 529 NSCLC): 93.6 µM; TGI (DLD-1 colon): > 100 µM; TGI (SK-MEL-28 melanoma): 88.4 µM; TGI (KM12 colon): 64.8 µM; TGI (HOP-18 NSCLC): > 100 µM; TGI (SK-OV-3 ovarian): 83.6 µM; TGI (HCC-2998 colon): 40.2 µM

Question: How did the TGI (SF-539 CNS) turn out when `O=c1c2ccccc2n2n1CC(O)C2` (stereo unspecified) was run?
Answer: > 100 µM

Question: What about the GI50 (MCF7 breast) of the same compound?
Answer: > 100 µM

Question: And the TGI (MCF7 breast)?
Answer: > 100 µM

Question: And the TGI (OVCAR-5 ovarian)?
Answer: > 100 µM

Question: What about the TGI (HCT-116 colon) of the same compound?
Answer: > 100 µM

Question: What about the TGI (MOLT-4 leukemia) of the same compound?
Answer: > 100 µM

Question: And the TGI (HL-60(TB) leukemia)?
Answer: > 100 µM

Question: What about the TGI (OVCAR-3 ovarian) of the same compound?
Answer: > 100 µM

Question: And the TGI (SK-MEL-2 melanoma)?
Answer: > 100 µM

Question: What about the TGI (SNB-19 CNS) of the same compound?
Answer: > 100 µM

Question: What about the TGI (EKVX NSCLC) of the same compound?
Answer: > 100 µM

Question: What about the TGI (SF-295 CNS) of the same compound?
Answer: > 100 µM

Question: What about the GI50 (DU-145 prostate) of the same compound?
Answer: > 100 µM

Question: And the TGI (DU-145 prostate)?
Answer: > 100 µM

Question: What about the TGI (ACHN renal) of the same compound?
Answer: > 24.6 µM

Question: What about the TGI (K-562 leukemia) of the same compound?
Answer: > 100 µM

Question: And the TGI (UACC-257 melanoma)?
Answer: > 100 µM

Question: What about the TGI (SNB-78 CNS) of the same compound?
Answer: > 100 µM

Question: What about the GI50 (A498 renal) of the same compound?
Answer: > 100 µM

Question: And the TGI (A498 renal)?
Answer: > 100 µM

Question: What about the TGI (XF 498 CNS) of the same compound?
Answer: > 100 µM

Question: And the GI50 (MDA-MB-231 breast)?
Answer: > 100 µM

Question: What about the TGI (MDA-MB-231 breast) of the same compound?
Answer: > 100 µM

Question: And the TGI (SR leukemia)?
Answer: > 100 µM

Question: What about the TGI (SW-620 colon) of the same compound?
Answer: > 100 µM

Question: And the TGI (SNB-75 CNS)?
Answer: > 100 µM

Question: And the GI50 (T-47D breast)?
Answer: > 100 µM

Question: What about the TGI (T-47D breast) of the same compound?
Answer: > 100 µM

Question: And the TGI (HT29 colon)?
Answer: > 100 µM

Question: And the TGI (M19-MEL melanoma)?
Answer: > 100 µM

Question: And the TGI (COLO 205 colon)?
Answer: > 100 µM

Question: What about the TGI (U251 CNS) of the same compound?
Answer: > 100 µM

Question: What about the TGI (MALME-3M melanoma) of the same compound?
Answer: > 100 µM

Question: And the GI50 (MDA-MB-435)?
Answer: > 100 µM

Question: What about the TGI (MDA-MB-435) of the same compound?
Answer: > 100 µM

Question: What about the TGI (CAKI-1 renal) of the same compound?
Answer: > 100 µM

Question: And the GI50 (PC-3 prostate)?
Answer: > 100 µM

Question: What about the TGI (PC-3 prostate) of the same compound?
Answer: > 100 µM

Question: And the TGI (OVCAR-8 ovarian)?
Answer: > 100 µM

Question: And the TGI (SF-268 CNS)?
Answer: > 100 µM

Question: And the TGI (786-0 renal)?
Answer: > 100 µM

Question: What about the TGI (CCRF-CEM leukemia) of the same compound?
Answer: > 100 µM

Question: What about the TGI (SN12C renal) of the same compound?
Answer: > 100 µM

Question: What about the TGI (M14 melanoma) of the same compound?
Answer: > 100 µM

Question: And the TGI (HOP-62 NSCLC)?
Answer: > 100 µM

Question: And the TGI (IGROV1 ovarian)?
Answer: > 100 µM

Question: And the TGI (NCI-H23 lung)?
Answer: > 100 µM

Question: And the TGI (A549 NSCLC)?
Answer: > 100 µM

Question: And the TGI (LOX IMVI melanoma)?
Answer: > 100 µM

Question: What about the TGI (HCT-15 colon) of the same compound?
Answer: > 100 µM

Question: And the GI50 (HS 578T breast)?
Answer: > 100 µM

Question: What about the TGI (HS 578T breast) of the same compound?
Answer: > 100 µM

Question: What about the TGI (RXF 393 renal) of the same compound?
Answer: > 100 µM

Question: And the TGI (NCI-H226 lung)?
Answer: > 100 µM

Question: What about the GI50 (NCI/ADR-RES ovarian) of the same compound?
Answer: > 100 µM

Question: What about the TGI (NCI/ADR-RES ovarian) of the same compound?
Answer: > 100 µM

Question: And the GI50 (BT-549 breast)?
Answer: > 100 µM

Question: And the TGI (BT-549 breast)?
Answer: > 100 µM

Question: What about the TGI (KM20L2 colon) of the same compound?
Answer: > 100 µM

Question: What about the TGI (TK-10 renal) of the same compound?
Answer: > 100 µM

Question: What about the TGI (SK-MEL-5 melanoma) of the same compound?
Answer: > 100 µM

Question: What about the TGI (DMS 273 small cell lung) of the same compound?
Answer: > 100 µM

Question: And the TGI (NCI-H460 lung)?
Answer: > 100 µM

Question: And the TGI (NCI-H522 lung)?
Answer: > 100 µM

Question: And the TGI (HOP-92 NSCLC)?
Answer: > 100 µM

Question: And the TGI (UO-31 renal)?
Answer: > 100 µM

Question: What about the TGI (OVCAR-4 ovarian) of the same compound?
Answer: > 100 µM

Question: What about the TGI (DLD-1 colon) of the same compound?
Answer: > 100 µM

Question: What about the TGI (SK-MEL-28 melanoma) of the same compound?
Answer: > 100 µM

Question: What about the TGI (KM12 colon) of the same compound?
Answer: > 100 µM

Question: And the TGI (HOP-18 NSCLC)?
Answer: > 100 µM

Question: And the TGI (RPMI-8226 leukemia)?
Answer: > 100 µM

Question: And the TGI (SK-OV-3 ovarian)?
Answer: > 100 µM

Question: What about the TGI (HCC-2998 colon) of the same compound?
Answer: > 100 µM
